Data on six cell lines can be found in the supplement of paper PMC10307832.

Experiment in all cases: relative viability (nuclei count vs DMSO), 5 days (fraction); higher = more cells survive
Compound in assay [1]: CC1=CN2C(=O)C=C(N=C2C(=C1)C(C)NC3=CC=CC=C3)N4CCOCC4 [TGX 221] + CC1(C)CCC(c2ccc(Cl)cc2)=C(CN2CCN(c3ccc(C(=O)NS(=O)(=O)c4ccc(N[C@H](CCN5CCOCC5)CSc5ccccc5)c(S(=O)(=O)C(F)(F)F)c4)cc3)CC2)C1 [Navitoclax] (partner 0.5 µM)
The gist of the method: (§1)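 Each reported value is a median over duplicate plates. It expresses relative viability: treated-well nuclei count divided by vehicle-well nuclei count. Lung cancer cell lines in 1536-well plates were dosed by pin tool a day after seeding, alone with one drug or with a fixed anchor-drug dose plus five library-drug doses (not always all listed) in √10 steps, and nuclei were counted after 5 days.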

Compound in assay [2]: CC1=CN2C(=O)C=C(N=C2C(=C1)C(C)NC3=CC=CC=C3)N4CCOCC4 [TGX 221] + Nc1nc2[nH]cc(CCc3ccc(C(=O)N[C@@H](CCC(=O)O)C(=O)O)cc3)c2c(=O)[nH]1 [Pemetrexed] (partner 0.2 µM)
In outline: as §1

Compound in assay [3]: C1=CC=C(C(=C1)C2=CC=C(C=C2)C3=CSC4=C3C(=C(C(=O)N4)C#N)O)O + Cc1nc(Nc2ncc(C(=O)Nc3c(C)cccc3Cl)s2)cc(N2CCN(CCO)CC2)n1 [Dasatinib] (partner 0.075 µM)
The gist of the method:
as §1

Compound in assay [4]: CC1=CN2C(=O)C=C(N=C2C(=C1)C(C)NC3=CC=CC=C3)N4CCOCC4 [TGX 221] + CC(=O)c1c(C)c2cnc(Nc3ccc(N4CCNCC4)cn3)nc2n(C2CCCC2)c1=O [Palbociclib] (partner 0.5 µM)
In outline: as §1

NCI-H1944: the relative viability was 0.981 in assay [1] (first compound 0.08 µM); 1.02 in assay [1] (first compound 0.253 µM); 1 in assay [1] (first compound 0.8 µM); 0.943 in assay [1] (first compound 2.53 µM); 0.841 in assay [1] (first compound 8 µM); 0.552 in assay [2] (first compound 0.253 µM). In addition, the relative viability in assay [2] (first compound 0.8 µM) was found to be 0.533; in assay [2] (first compound 2.53 µM) it was 0.6; in assay [2] (first compound 8 µM), 0.562; in assay [3] (first compound 0.08 µM), 0.224; in assay [3] (first compound 0.253 µM) it was 0.248; in assay [3] (first compound 0.8 µM), 0.219. The relative viability was found to be 0.178 in assay [3] (first compound 2.53 µM); 0.215 in assay [3] (first compound 8 µM); 0.327 in assay [4] (first compound 0.253 µM); 0.332 in assay [4] (first compound 0.8 µM); 0.277 in assay [4] (first compound 2.53 µM); 0.245 in assay [4] (first compound 8 µM).
Turning to NCI-H23, the relative viability in assay [1] (first compound 0.08 µM) was determined as 0.753; in assay [1] (first compound 0.253 µM), 0.763; in assay [1] (first compound 0.8 µM) it was 0.832; in assay [1] (first compound 2.53 µM) it was 0.608; in assay [1] (first compound 8 µM), 0.713; in assay [2] (first compound 0.08 µM), 0.599. The relative viability in assay [2] (first compound 0.253 µM) was found to be 0.571; in assay [2] (first compound 0.8 µM), 0.678; in assay [2] (first compound 2.53 µM) it was 0.526; in assay [2] (first compound 8 µM), 0.578; in assay [3] (first compound 0.08 µM), 0.654; in assay [3] (first compound 0.253 µM), 0.677. For the same cell line, the relative viability in assay [3] (first compound 0.8 µM) is 0.755; in assay [3] (first compound 2.53 µM), 1.01; in assay [3] (first compound 8 µM), 0.604; in assay [4] (first compound 0.08 µM), 0.479; in assay [4] (first compound 0.253 µM), 0.441; in assay [4] (first compound 0.8 µM) it was 0.424. For the same cell line, the results for the relative viability in assay [4] (first compound 2.53 µM) and in assay [4] (first compound 8 µM) were 0.479 and 0.389, respectively.
Turning to HCC-366, the relative viability worked out at 1.03 in assay [1] (first compound 0.08 µM); 0.927 in assay [1] (first compound 0.253 µM); 0.916 in assay [1] (first compound 0.8 µM); 1.07 in assay [1] (first compound 2.53 µM); 0.914 in assay [1] (first compound 8 µM); 0.158 in assay [2] (first compound 0.08 µM). In addition, the relative viability in assay [2] (first compound 0.253 µM) turned out to be 0.146; in assay [2] (first compound 0.8 µM), 0.184; in assay [2] (first compound 2.53 µM), 0.165; in assay [2] (first compound 8 µM) it was 0.16; in assay [3] (first compound 0.08 µM), 0.505; in assay [3] (first compound 0.253 µM), 0.844. The relative viability in assay [3] (first compound 0.8 µM) turned out to be 0.64; in assay [3] (first compound 2.53 µM), 0.737; in assay [3] (first compound 8 µM), 0.353; in assay [4] (first compound 0.08 µM) it was 0.387; in assay [4] (first compound 0.253 µM), 0.358; in assay [4] (first compound 0.8 µM), 0.418. Moreover, the relative viability in assay [4] (first compound 2.53 µM) stood at 0.368; in assay [4] (first compound 8 µM) it was 0.297.
As for NCI-H2405, the relative viability in assay [1] (first compound 0.08 µM) came to 0.701; in assay [1] (first compound 0.253 µM) it was 0.815; in assay [1] (first compound 0.8 µM) it was 0.804; in assay [1] (first compound 2.53 µM) it was 0.668; in assay [1] (first compound 8 µM) it was 0.636; in assay [2] (first compound 0.08 µM), 1.01. Also, the relative viability in assay [2] (first compound 0.253 µM) amounted to 1.05; in assay [2] (first compound 0.8 µM), 1.07; in assay [2] (first compound 2.53 µM) it was 0.952; in assay [2] (first compound 8 µM), 0.885; in assay [3] (first compound 0.08 µM) it was 0.206; in assay [3] (first compound 0.253 µM), 0.206. Also, the relative viability in assay [3] (first compound 0.8 µM) is 0.214; in assay [3] (first compound 2.53 µM) it was 0.201; in assay [3] (first compound 8 µM), 0.201; in assay [4] (first compound 0.08 µM), 0.482; in assay [4] (first compound 0.253 µM) it was 0.484; in assay [4] (first compound 0.8 µM) it was 0.504. The relative viability in assay [4] (first compound 2.53 µM) was 0.456; in assay [4] (first compound 8 µM), 0.482.
Turning to NCI-H441, the relative viability was determined as 0.494 in assay [1] (first compound 0.08 µM); 0.529 in assay [1] (first compound 0.253 µM); 0.599 in assay [1] (first compound 0.8 µM); 0.998 in assay [1] (first compound 2.53 µM); 0.797 in assay [1] (first compound 8 µM); 0.238 in assay [2] (first compound 0.08 µM). In addition, the relative viability in assay [2] (first compound 0.253 µM) worked out at 0.224; in assay [2] (first compound 0.8 µM), 0.231; in assay [2] (first compound 2.53 µM), 0.28; in assay [2] (first compound 8 µM), 0.266; in assay [3] (first compound 0.08 µM), 0.437; in assay [3] (first compound 0.253 µM) it was 0.626. In addition, the relative viability in assay [3] (first compound 0.8 µM) came to 0.582; in assay [3] (first compound 2.53 µM), 0.636; in assay [3] (first compound 8 µM), 0.538; in assay [4] (first compound 0.08 µM), 0.239; in assay [4] (first compound 0.253 µM) it was 0.203; in assay [4] (first compound 0.8 µM), 0.217. Besides, the relative viability was 0.185 in assay [4] (first compound 2.53 µM) and 0.21 in assay [4] (first compound 8 µM).
As to NCI-H322M, the relative viability in assay [1] (first compound 0.08 µM) is 1.13; in assay [1] (first compound 0.253 µM), 1.19; in assay [1] (first compound 0.8 µM), 1.14; in assay [1] (first compound 2.53 µM), 0.911; in assay [1] (first compound 8 µM) it was 1.33; in assay [2] (first compound 0.08 µM), 0.58. For the same cell line, the relative viability in assay [2] (first compound 0.253 µM) is 0.619; in assay [2] (first compound 0.8 µM) it was 0.604; in assay [2] (first compound 2.53 µM), 0.579; in assay [2] (first compound 8 µM), 0.565; in assay [3] (first compound 0.08 µM), 0.245; in assay [3] (first compound 0.253 µM), 0.244. Further, the relative viability in assay [3] (first compound 0.8 µM) is 0.234; in assay [3] (first compound 2.53 µM), 0.243; in assay [3] (first compound 8 µM) it was 0.273; in assay [4] (first compound 0.08 µM), 0.492; in assay [4] (first compound 0.253 µM), 0.484; in assay [4] (first compound 0.8 µM) it was 0.478. Also, the relative viability was 0.459 in assay [4] (first compound 2.53 µM) and 0.388 in assay [4] (first compound 8 µM).
